Data on five compounds can be found in patent publication US9573911B2, “Diphosphate mimetics and uses thereof” (President and Fellows of Harvard College, priority 2011, dated 2017).

pIC50: −log10 of the molar value. Bounds are passed on as bounds.

Assay [1] concerns the target T1, OGT (Homo sapiens, UniProt O15294).
T1 construct: hOGT4.5 construct (spanning residues 313-1031 based on the numbering of the full length human protein); made in house
T1 sequence (O15294 313-1031 isoform O15294-3): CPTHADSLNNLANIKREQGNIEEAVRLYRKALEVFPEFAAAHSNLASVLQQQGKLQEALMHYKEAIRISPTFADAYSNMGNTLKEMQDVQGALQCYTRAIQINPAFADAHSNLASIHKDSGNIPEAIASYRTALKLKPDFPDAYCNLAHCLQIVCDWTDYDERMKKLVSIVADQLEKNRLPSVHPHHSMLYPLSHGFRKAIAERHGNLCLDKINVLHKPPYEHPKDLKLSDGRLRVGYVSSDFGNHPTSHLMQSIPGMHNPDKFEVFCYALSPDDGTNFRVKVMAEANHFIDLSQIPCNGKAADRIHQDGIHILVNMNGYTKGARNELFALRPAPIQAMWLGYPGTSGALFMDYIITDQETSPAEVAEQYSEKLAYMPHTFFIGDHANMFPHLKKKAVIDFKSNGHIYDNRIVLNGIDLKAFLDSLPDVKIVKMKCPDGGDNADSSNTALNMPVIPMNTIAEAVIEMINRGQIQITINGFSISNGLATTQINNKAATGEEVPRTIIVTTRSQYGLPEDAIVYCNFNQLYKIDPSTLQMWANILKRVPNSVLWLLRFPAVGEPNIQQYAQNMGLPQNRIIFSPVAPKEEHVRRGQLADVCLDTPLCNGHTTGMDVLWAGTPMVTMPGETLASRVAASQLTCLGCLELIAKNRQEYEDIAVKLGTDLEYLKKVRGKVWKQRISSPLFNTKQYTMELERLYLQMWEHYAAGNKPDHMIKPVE
The experiment in a line: IC50 assay, OGT peptide-capture assay. It counts as biochemical. The conditions noted are these: peptide-capture assay, different concentrations of each compound, read-out: IC50 Values. As for the experimental part: IC50 Assay of Thiocarbamate to OGT.
Enzyme activity was tested with the peptide-capture assay in the presence of different concentrations of each compound as previously reported (J. Am. Chem. Soc. 2005, 127, 14588-14589).

The target in assay [2] is T1, OGT. The experiment in a line: Time-dependent inactivation of OGT with BZX compounds. The format is biochemical. An excerpt:
Compound (1) was identified in a high-throughput screen of 65,000 compounds (FIG. 1). See, e.g., Gross et al., J. Am. Chem. Soc. (2005) 127:14588-14589. It contains a dicarbamate moiety that links two aromatic groups. This compound features a conjugated chemical structure and both carbamate carbonyls are potentially reactive. See, e.g., Alexander et al., Chem. Biol. (2005) 12:1179-1187. […] A small panel of related compounds was made from commercially available building blocks in order to identify structural features that might improve potency. Time-dependent inactivation studies were carried out in which OGT was preincubated with a three-fold excess of each compound for 5 min, and the mixture was then diluted 100-fold into buffer containing UDP-^14C-GlcNAc and the well-characterized peptide substrate, CKII. See, e.g., Kreppel et al., J. Biol. Chem. (1999) 274:32015-32022). Enzyme activity was measured using a previously developed peptide capture assay. See, e.g., Gross et al., J. Am. Chem. Soc. (2005) 127:14588-14589.
Each BZX compound (7.5 μM) was preincubated with 5 μM OGT in reaction buffer (125 mM NaCl, 1 mM EDTA, 20 mM potassium phosphate, pH 7.4, and 500 μM tris(hydroxypropyl)phosphine (THP)) at room temperature for different amount of time, then diluted 100-fold, mixed with substrates (6 μM UDP-^14C-GlcNAc and 500 μM CKII peptide (KKKYPGGSTPVSSANMM)) and allowed to react for another 2 h. Enzyme activity was tested with the peptide capture assay as previously reported. See, e.g., Gross et al., J. Am. Chem. Soc. (2005) 127:14588-14589. The final volume of each reaction was 20 μl, and the experiments were conducted in triplicate. The activities of OGT mutants were also tested in triplicate as previously reported. See, e.g., Gross supra.

As for `COc1ccc2c(c1)oc(=O)n2C(=O)Oc1ccccc1` [Compound 6], at OGT [1], the negative logarithm of the IC50 (pIC50) is roughly 4.00. In addition, at OGT [2] (1.5:1 inhibitor:enzyme ratio), the “inactivation time course of OGT” value is recorded as “no inhibition”.

As for `O=C(Oc1ccccc1)n1c(=O)oc2cc([N+](=O)[O-])ccc21` [Compound 4], the pIC50 at OGT [1] was 4.22.

`COc1ccc(OC(=O)n2c(=O)oc3ccc(Cl)cc32)cc1` [Compound 3]: the pIC50 at OGT [1] is 4.74.

`O=C(Oc1ccccc1)n1c(=O)oc2ccccc21` [Compound 5]: on OGT [1], the pIC50 was less than 4.00.

With `COc1ccc(OC(=O)n2c(=O)oc3cc(C(C)=O)ccc32)cc1` [Compound 1], the “OGT enzyme activity after preincubation with compound” value on OGT [2] (three-fold excess of compound, 5 min preincubation, then diluted 100-fold) was “irreversible loss of enzyme activity”.

By pIC50 is commonly meant the negative decadic logarithm of the IC50, by convention in mol/L.
